The values below come from ChEMBL document CHEMBL1201862, “PubChem BioAssay data set” (2004).

Assay [1] in a line: A Cell Based Secondary Assay To Explore Cytotoxicity of Compounds that Sensitize Mycobacterium Tuberculosis to Beta-Lactam Antibiotics. Type of assay: functional.
A further assay deals with T1, Estrogen receptor (Homo sapiens, UniProt P03372).
T1 sequence (P03372 whole entry): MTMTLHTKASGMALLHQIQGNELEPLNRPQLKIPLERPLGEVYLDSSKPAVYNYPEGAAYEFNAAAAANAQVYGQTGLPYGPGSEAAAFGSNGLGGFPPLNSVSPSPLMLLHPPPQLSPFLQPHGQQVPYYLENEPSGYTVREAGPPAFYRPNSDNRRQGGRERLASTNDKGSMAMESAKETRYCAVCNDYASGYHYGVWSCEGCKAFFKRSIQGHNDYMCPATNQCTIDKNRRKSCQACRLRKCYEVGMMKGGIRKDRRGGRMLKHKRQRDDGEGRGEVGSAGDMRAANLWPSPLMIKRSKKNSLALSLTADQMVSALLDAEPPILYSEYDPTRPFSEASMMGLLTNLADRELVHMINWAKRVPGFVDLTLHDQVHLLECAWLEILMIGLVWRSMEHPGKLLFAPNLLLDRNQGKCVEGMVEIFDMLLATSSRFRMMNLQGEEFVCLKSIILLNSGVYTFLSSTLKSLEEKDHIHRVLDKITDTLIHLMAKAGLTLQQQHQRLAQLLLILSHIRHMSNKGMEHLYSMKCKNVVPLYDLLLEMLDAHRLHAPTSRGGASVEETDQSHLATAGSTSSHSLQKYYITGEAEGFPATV
Nature of the assay: ERα coactivator recruitment enhancers – biochemical, TR-FRET, ERα LBD, dose response (AID 737). (In general: Time-resolved FRET reads energy transfer from a long-lived donor to a nearby acceptor.)

The target in assay [2] is T2, Bcl-2-like protein 10 (Homo sapiens, UniProt Q9HD36).
T2 sequence (Q9HD36 whole entry): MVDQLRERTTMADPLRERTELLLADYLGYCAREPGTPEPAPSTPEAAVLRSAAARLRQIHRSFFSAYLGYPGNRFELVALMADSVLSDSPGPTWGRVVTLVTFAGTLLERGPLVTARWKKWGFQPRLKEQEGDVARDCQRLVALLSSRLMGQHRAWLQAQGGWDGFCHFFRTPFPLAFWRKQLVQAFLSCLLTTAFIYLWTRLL
Nature of the assay: Concentration-response of Bcl-B inhibitors by biochemical FP with TR3 (AID 1243). Type of assay: functional.

Assay [3] has as its target Peroxisome proliferator-activated receptor gamma/Nuclear receptor coactivator 3 (Homo sapiens, UniProt P37231). Type of assay: functional.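 Further: agonist potency for raising coactivator recruitment to the receptor.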
Assay [4] addresses Peroxisome proliferator-activated receptor gamma/Nuclear receptor coactivator 2 (Homo sapiens, UniProt P37231). Type of assay: functional.
In assay [5] the target is Peroxisome proliferator-activated receptor gamma/Nuclear receptor coactivator 1 (Homo sapiens, UniProt P37231). Type of assay: functional.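 Further: agonist potency as compounds enhance coactivator SRC-1 recruitment to PPARgamma.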
The target in assay [6] is Protein-tyrosine kinase 2-beta (Homo sapiens, UniProt Q14289).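 Further: potency of inhibitors of PYK2 kinase phosphorylation of poly-GT substrate.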
Protein-tyrosine kinase 2-beta, sequence (Q14289 whole entry): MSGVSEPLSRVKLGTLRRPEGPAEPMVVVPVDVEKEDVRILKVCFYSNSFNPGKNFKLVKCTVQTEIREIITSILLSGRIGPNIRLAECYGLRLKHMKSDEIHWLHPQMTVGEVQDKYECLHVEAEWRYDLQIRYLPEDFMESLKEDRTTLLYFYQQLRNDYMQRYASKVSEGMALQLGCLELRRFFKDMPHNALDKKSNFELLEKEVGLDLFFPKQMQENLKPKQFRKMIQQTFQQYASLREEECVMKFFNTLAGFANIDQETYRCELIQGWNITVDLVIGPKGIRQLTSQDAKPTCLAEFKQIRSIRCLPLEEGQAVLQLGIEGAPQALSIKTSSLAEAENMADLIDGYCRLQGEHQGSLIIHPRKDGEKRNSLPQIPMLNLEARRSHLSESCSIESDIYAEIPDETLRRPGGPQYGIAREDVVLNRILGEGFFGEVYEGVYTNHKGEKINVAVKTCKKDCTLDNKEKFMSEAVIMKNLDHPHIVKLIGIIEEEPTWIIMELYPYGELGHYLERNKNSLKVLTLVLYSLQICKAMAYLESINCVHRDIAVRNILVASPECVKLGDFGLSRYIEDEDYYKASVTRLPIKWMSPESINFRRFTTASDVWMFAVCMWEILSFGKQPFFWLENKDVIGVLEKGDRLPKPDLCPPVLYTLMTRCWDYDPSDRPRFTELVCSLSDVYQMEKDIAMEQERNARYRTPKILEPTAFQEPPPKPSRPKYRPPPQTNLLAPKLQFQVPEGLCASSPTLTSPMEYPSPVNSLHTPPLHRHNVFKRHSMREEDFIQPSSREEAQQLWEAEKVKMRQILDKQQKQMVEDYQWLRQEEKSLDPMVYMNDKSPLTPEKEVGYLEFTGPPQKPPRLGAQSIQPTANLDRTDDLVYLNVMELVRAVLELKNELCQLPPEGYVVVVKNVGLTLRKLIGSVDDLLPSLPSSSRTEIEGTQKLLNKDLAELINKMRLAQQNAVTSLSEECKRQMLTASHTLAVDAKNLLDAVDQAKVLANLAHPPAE
For assay [7], the target named is T2, Bcl-2-like protein 10. Nature of the assay: Bcl-B/TR3 peptide binding disruption – biochemical, fluorescence polarization, FITC-TR3 peptide, selectivity assay for Bfl-1 inhibitor project, primary screen (AID 748). (In general: Fluorescence polarisation rises when a labelled molecule tumbles more slowly, as on binding a larger partner.)
Assay [8] addresses Eukaryotic translation initiation factor 4E (Mus musculus, UniProt P63073). As to the kind of experiment: blockers of eIF4G binding by eIF4E – biochemical, TR-FRET, dose response (AID 855).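 Further: potency for disrupting eIF4E binding to eIF4GI seen as loss of FRET.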 Type of assay: functional.
Assay [9] concerns the target T3, E3 ubiquitin-protein ligase XIAP (Homo sapiens, UniProt P98170). As to the kind of experiment: Counter Screen using XIAP-Bir3 for Chemical Antagonists of Bir1/2 domains of IAP-family anti-apoptotic proteins. [Related pubchem assays (depositor defined):AID1018, AID1449, AID1514, AID1638, AID1749, AID1750, AID488957, AID488963].
Assay [10] addresses T3, E3 ubiquitin-protein ligase XIAP. As to the kind of experiment: small molecules displacing peptide from XIAP – biochemical, IAP family, fluorescence polarization (AID 1018). Type of assay: functional.
Assay [11] deals with Streptococcus. Nature of the assay: GAS UMAA2166 growth inhibition – luminescence, BacTiterGlo, counter-screen for streptokinase expression inhibitor project, dose response (AID 1915).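 Further: potency for reduction of bacterial viability or growth.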 Type of assay: functional, organism-based. Background: A counterscreen serves to expose hits that act by an unwanted route or on another target.
For assay [12], the system named is Streptococcus. As to the kind of experiment: Luminescence Microorganism-Based Dose Response Follow up to Identify Compounds Cytotoxic to Streptococcus. [Related pubchem assays: 1677 (Project Summary), 1915, 1914, 1902 (Retest at Dose), 1900 (Counter Screen), 1662 (Primary HTS)]. Type of assay: functional, organism-based.
For assay [13], the system named is Streptococcus sp. 'group A'. Nature of the assay: Streptococcus pyogenes SK(-)GAS viability under kanamycin – luminescence, BacTiterGlo, confirmation, counter-screen for streptokinase expression inhibitor project, dose response (AID 1900). Type of assay: functional, organism-based.
The next assay addresses Aspartyl aminopeptidase (Plasmodium falciparum 3D7, UniProt Q8I2J3). As to the kind of experiment: Counterscreen for inhibitors of M1 and M17 aminopeptidases: QFRET-based biochemical high throughput dose response assay for inhibitors of the Plasmodium falciparum M18 Aspartyl Aminopeptidase (PFM18AAP). [Related PubChem assays: 1619 (Screening assay (M17LAP inhibitors).), 1445 (Screening assay (M1AAP inhibitors).)].

The target in a further assay is Procathepsin L (Homo sapiens, UniProt P07711). As to the kind of experiment: CTSL1 protease inhibition – biochemical, QFRET, 1536-well, counter-screen for M1/M17 aminopeptidase inhibitor project, dose response (AID 2214).
Procathepsin L, sequence (P07711 whole entry): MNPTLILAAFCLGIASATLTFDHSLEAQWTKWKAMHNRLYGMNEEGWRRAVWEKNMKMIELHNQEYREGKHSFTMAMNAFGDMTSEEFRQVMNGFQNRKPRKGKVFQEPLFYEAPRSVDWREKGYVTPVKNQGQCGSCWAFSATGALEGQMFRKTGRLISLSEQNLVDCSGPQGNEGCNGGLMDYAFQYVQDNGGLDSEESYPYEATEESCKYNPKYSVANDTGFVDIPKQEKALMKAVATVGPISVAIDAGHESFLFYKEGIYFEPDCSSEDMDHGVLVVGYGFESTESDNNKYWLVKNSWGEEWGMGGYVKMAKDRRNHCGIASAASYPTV
Another assay addresses T4, Aminopeptidase N (Plasmodium falciparum FcB1/Columbia, UniProt O96935).
T4 sequence (O96935 whole entry): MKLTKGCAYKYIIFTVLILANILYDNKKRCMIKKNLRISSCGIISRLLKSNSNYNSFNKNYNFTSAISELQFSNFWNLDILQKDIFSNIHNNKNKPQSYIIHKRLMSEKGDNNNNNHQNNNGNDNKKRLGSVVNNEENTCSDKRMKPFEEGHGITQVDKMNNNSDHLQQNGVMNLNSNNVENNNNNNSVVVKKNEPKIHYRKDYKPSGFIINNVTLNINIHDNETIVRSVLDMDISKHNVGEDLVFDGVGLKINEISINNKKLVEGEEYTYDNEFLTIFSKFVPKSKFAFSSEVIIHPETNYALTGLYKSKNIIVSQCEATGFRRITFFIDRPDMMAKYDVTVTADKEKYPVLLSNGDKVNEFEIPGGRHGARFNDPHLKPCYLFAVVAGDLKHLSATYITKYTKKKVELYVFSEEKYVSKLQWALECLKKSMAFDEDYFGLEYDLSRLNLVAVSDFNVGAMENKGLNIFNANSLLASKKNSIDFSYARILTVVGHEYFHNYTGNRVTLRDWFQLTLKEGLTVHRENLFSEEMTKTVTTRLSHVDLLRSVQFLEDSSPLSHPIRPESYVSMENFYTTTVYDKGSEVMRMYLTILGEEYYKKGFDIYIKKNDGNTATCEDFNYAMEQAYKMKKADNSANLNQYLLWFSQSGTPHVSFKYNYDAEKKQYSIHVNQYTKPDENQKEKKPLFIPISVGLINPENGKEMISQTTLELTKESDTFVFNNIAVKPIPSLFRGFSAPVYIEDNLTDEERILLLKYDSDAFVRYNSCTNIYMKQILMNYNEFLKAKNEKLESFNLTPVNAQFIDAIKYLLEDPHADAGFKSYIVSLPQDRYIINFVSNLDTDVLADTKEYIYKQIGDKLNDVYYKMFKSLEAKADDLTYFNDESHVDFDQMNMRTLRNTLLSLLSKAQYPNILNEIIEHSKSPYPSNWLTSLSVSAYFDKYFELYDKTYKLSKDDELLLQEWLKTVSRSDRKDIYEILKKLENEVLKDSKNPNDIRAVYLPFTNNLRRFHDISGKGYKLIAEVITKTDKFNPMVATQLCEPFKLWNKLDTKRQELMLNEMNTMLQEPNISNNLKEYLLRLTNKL
Nature of the assay: malaria alanyl aminopeptidase activity blockers – biochemical, fluorogenic H-Leu-NHMec substrate, 1536-well (AID 1445). Also noted: species or system Plasmodium falciparum 3D7, 3D7.

A short description of assay [14]: cells. Type of assay: functional, cell-based.
A short description of assay [15]: cells. Type of assay: functional, cell-based. The source holds these as a separate data set.
A further assay has as its system H4. As to the kind of experiment: Luminescence Cell-Based Dose Response HTS to Identify Activators of 5'UTR Stem-Loop Driven Prion Protein mRNA Translation in H4 Neuroglioblastoma Cells. [Related pubchem assays: 1829 (Project Summary), 1814 (Primary HTS)]. Type of assay: functional. The note with it: Homo sapiens.
Assay [16] in a line: Luminescence Cell-Based Dose Response to Identify Activators of Luciferase Translation or Activity in H4-C Neuroglioblastoma Cells. [Related pubchem assays: 1829 (Project Summary), 1814 (Primary HTS)]. Type of assay: functional.
Assay [17] can be described thus: Luminescence Cell-Based Dose Response to Identify Activators of 5'UTR Stem-Loop Driven Prion Protein mRNA Translation in H4-C Neuroglioblastoma Cells. [Related pubchem assays: 1829 (Project Summary), 1814 (Primary HTS)]. Type of assay: functional.
Assay [18] can be described thus: Luminescence Cell-Based Dose Response HTS to Identify Activators of Luciferase Translation or Activity in H4 […] Cells. [Related pubchem assays: 1829 (Project Summary), 1814 (Primary HTS)]. Type of assay: functional.
A short description of assay [19]: Luminescence Cell-Based Dose Confirmation to Identify Activators of 5'UTR Stem-Loop Driven Alpha-Synuclein mRNA Translation in H4 Neuroglioblastoma Cells. [Related pubchem assays: 1829 (Project Summary), 1814 (Primary HTS)]. Type of assay: functional.
Assay [20] is described as follows: Luminescence Cell-Based Dose Confirmation HTS to Identify Activators of 5'UTR Stem-Loop Driven Alpha-Synuclein mRNA Translation in H4 Neuroglioblastoma Cells. [Related pubchem assays: 1829 (Project Summary), 1814 (Primary HTS)]. Type of assay: functional.

The source made the active and inactive calls. A value given as a limit tells only on which side of the number the result lay.

T3 sequence (P98170 whole entry): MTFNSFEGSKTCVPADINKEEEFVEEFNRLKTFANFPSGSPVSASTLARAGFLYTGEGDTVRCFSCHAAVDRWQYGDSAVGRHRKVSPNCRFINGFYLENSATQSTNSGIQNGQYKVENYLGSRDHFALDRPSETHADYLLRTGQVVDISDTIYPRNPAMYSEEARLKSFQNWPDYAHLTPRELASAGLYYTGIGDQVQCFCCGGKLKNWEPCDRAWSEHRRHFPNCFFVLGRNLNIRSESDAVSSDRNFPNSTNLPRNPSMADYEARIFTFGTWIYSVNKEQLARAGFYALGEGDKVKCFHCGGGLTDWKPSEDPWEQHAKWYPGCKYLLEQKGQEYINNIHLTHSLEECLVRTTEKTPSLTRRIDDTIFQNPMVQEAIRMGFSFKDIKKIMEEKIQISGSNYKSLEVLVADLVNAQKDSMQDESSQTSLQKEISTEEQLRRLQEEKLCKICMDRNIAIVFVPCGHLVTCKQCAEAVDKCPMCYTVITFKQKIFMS
Aspartyl aminopeptidase, sequence (Q8I2J3 whole entry): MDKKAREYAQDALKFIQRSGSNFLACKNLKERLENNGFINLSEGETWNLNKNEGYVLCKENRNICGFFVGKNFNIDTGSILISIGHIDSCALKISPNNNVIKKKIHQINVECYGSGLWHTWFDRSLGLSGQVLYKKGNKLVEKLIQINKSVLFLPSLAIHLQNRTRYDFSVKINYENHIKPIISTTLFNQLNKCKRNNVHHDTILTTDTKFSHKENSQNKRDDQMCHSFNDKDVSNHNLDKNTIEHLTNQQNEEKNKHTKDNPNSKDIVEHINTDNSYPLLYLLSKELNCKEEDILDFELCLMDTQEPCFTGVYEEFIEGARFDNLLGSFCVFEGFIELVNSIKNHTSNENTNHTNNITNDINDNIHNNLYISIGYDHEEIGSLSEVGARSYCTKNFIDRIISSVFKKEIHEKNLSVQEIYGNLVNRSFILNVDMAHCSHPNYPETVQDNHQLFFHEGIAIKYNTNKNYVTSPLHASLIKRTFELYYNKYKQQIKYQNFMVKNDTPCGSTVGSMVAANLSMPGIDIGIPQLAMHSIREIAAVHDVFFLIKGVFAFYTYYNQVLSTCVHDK
Peroxisome proliferator-activated receptor gamma/Nuclear receptor coactivator 3, sequence (P37231 whole entry): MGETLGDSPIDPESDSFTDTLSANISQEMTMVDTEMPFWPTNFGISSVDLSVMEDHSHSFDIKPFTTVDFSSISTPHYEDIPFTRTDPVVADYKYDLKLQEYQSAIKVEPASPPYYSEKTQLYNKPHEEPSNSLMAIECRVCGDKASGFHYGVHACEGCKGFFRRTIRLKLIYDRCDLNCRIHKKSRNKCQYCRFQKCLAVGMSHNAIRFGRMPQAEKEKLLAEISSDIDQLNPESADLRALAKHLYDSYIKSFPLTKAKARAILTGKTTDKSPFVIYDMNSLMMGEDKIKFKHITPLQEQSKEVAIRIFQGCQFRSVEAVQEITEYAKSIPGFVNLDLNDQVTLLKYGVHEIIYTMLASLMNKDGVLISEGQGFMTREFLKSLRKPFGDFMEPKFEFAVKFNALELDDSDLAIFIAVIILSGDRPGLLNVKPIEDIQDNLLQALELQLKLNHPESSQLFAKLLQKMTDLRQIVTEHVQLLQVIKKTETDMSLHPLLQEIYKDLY
Peroxisome proliferator-activated receptor gamma/Nuclear receptor coactivator 3, sequence (Q9Y6Q9 whole entry, further chain): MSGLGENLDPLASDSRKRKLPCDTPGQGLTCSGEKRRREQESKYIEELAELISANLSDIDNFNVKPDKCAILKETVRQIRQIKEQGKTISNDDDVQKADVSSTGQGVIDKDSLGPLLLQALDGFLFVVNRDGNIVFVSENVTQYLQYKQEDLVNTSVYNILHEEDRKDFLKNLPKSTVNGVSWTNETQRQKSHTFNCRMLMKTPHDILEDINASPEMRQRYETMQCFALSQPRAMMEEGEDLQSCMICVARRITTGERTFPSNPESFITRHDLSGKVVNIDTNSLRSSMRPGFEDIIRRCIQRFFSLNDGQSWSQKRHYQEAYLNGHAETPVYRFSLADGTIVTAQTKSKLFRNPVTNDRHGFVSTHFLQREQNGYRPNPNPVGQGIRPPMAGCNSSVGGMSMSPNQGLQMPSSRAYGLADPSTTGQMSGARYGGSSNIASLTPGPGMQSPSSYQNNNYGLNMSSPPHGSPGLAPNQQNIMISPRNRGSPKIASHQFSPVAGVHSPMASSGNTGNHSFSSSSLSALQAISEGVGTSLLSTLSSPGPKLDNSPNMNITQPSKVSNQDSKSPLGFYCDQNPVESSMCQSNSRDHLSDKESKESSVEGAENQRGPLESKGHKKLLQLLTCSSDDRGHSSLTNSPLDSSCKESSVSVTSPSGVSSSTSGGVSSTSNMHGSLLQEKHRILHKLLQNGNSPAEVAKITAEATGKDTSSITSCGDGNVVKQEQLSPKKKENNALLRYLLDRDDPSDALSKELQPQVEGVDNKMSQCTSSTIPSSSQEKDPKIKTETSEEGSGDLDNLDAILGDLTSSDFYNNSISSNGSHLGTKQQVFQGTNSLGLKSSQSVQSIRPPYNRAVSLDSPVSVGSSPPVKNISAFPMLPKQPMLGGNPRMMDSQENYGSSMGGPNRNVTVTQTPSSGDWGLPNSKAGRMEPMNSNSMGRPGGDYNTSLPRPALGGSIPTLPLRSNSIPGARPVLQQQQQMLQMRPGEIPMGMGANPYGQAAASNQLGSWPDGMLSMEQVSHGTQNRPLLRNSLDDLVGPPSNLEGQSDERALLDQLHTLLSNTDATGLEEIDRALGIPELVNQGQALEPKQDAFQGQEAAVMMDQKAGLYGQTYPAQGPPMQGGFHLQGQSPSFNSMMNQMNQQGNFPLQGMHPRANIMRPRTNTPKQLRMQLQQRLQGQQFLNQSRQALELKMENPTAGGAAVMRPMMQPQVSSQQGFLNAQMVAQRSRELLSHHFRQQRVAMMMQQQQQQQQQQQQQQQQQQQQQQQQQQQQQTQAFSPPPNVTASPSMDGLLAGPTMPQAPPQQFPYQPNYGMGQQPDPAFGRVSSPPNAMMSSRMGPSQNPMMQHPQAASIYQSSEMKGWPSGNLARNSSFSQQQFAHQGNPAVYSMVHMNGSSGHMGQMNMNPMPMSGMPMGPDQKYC
Eukaryotic translation initiation factor 4E, sequence (P63073 whole entry): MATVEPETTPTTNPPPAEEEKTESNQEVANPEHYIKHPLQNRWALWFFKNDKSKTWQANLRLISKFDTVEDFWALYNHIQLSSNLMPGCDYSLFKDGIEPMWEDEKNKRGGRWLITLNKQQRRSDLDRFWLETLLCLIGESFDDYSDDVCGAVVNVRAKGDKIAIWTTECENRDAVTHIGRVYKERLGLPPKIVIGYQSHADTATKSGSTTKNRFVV

For orientation: CC50 means the concentration giving 50% cytotoxicity. For `CCOC(=O)c1c(C)[nH]c(C)c1C(=O)COC(=O)c1ccc(S(=O)(=O)N(CC)CC)cc1`, the CC50 in assay [1] was > 40 µM (active).
What is called EC50 is the midpoint of the concentration-response curve. `COc1ccccc1-n1c(SCC(=O)NC2CCCCC2)nc2c(c1=O)SCC2`: the EC50 on Estrogen receptor is 6.62 µM (not active).
Consider `COc1cc(C2Nc3ccc4ccccc4c3C3=C2C(=O)CC(C)(C)C3)c(Br)cc1O` (stereo not given), for which the EC50 on Bcl-2-like protein 10 [2] is 13.1 µM (active).
For `Cn1c(=O)cc2c3c(c(Nc4ccc(C=O)cc4)ccc31)C(=O)c1ccccc1-2`, at Bcl-2-like protein 10 [2], the EC50 is 8.04 µM (active).
For `O=C(COC(=O)c1sc2ccccc2c1Cl)Nc1ncc(Cl)cc1Cl`, the EC50 in assay [3] is 25.5 µM (not active); in assay [4] it was 18.8 µM (not active); in assay [5], 21.6 µM (not active).
In general, IC50 refers to the point on the concentration scale where inhibition reaches its midpoint. `Cc1cc(N)ccc1N1CCCC1`: the IC50 is 1.82 µM (active) in [6], 963 nM (active) on Bcl-2-like protein 10 [7] and 33.1 µM (inactive) in [8].
Turning to `CC(=O)N1CCCc2cc(S(=O)(=O)N(CC(C)C)CC(C)C)ccc21`, the IC50 in assay [9] was > 100 µM (inactive); in [10] it was > 100 µM (not active).
For the compound `O=C(CSc1nc(O)nc(-c2ccc(Cl)cc2)n1)Nc1cccc(Cl)c1`, the figures for the EC50 (in the assay on Streptococcus [11]; with Streptococcus [12]; in assay [13]) were > 150 µM (not active), 26.2 µM (active) and 4.35 µM (active), respectively.
As to `COc1ccc(SCC(=O)N2c3ccccc3Sc3ccccc32)cc1`, in the assay on Streptococcus [12], the EC50 is > 500 µM (not active).
Consider `CCCN1Cc2cccc(C(=O)Nc3ccc4c(c3)OCO4)c2C1=O`, for which the IC50 in [9] was > 100 µM (inactive); in [10] it was > 100 µM (not active).
`O=C(O)CCC(=O)N1N=C(c2c(-c3ccccc3)c3cc(Cl)ccc3[nH]c2=O)CC1c1ccco1` (stereo not given): the IC50 was > 73.5 µM (not active) against Aspartyl aminopeptidase, > 59.6 µM (not active) against Procathepsin L and 13 µM (active) at Aminopeptidase N.
The matching figures for `O=C(O)CCC(=O)N1N=C(c2c(O)nc3ccc(Cl)cc3c2-c2ccccc2)CC1c1cccs1` (stereo not given): > 73.5 µM (not active), > 59.6 µM (not active) and 5.76 µM (active).
Regarding `CC(C)N=C(S)NN=C1c2ccccc2-c2ccccc21`, the CC50 in assay [1] was > 40 µM (active). Moreover, the EC50 in the assay “cells [14]” and in the assay “cells [15]” was > 350 µM (not active) in each case.
In the case of `Cn1cc(Br)c(C(=O)Nc2sc3c(c2C(N)=O)CCCC3)n1`, the EC50 in the assay on H4 was 117 nM (active); in assay [16] it was > 12 µM (not active); in assay [17], > 12 µM (not active); in [18], 13.6 µM (active); in [19], > 12 µM (not active); in assay [20] it was 13.3 µM (active).
For `NC(=O)c1oc2ccccc2c1NC(=O)c1nc2ccccc2s1`, the EC50 at Estrogen receptor was 13.4 µM (active).
On to `Cc1ccc(OC(=O)c2ccccc2P(=O)(O)O)cc1`, for which the IC50 in [6] was 9.74 µM (active).
